The values that follow come from patent EP2242752B1, “[…] IMIDAZOLES AS HEPATITIS C VIRUS INHIBITORS” (Bristol-Myers Squibb Company, priority 2008, dated 2009).

The test concerns HCV 1b genotype. Description: HCV Replicon assay (HCV 16-377-neo replicon cells). Format: cell-based. The note with it: Hepatitis C virus; HCV 1b genotype replicon cells; read-out: EC50 ranges against HCV 1b. The procedure:
An HCV Replion assay was utilized in the present disclosure, and was prepared, conducted and validated as described in commonly owned PCT/US2006/022197 and in O'Boyle et. al. Antimicrob Agents Chemother. 2005 Apr;49(4): 1346-53.
HCV 16-377-neo replicon cells were used to test the currently described compound series as well as cells resistant to compound A due to a Y2065H mutation in NS5A (described in application PCT/US2006/022197). The compounds tested were determined to have more than 10-fold less inhibitory activity on cells resistant to compound A than wild-type cells indicating a related mechanism of action between the two compound series. Thus, the compounds of the present disclosure can be effective to inhibit the function of the HCV NS5A protein and are understood to be as effective in combinations as previously described in application PCT/US2006/022197 and commonly owned WO/O4014852. Further, the compounds of the present disclosure can be effective against the HCV 1b genotype. It should also be understood that the compounds of the present disclosure can inhibit multiple genotypes of HCV. […] In one embodiment compounds of the present disclosure are active against the 1a, 1b, 2a, 2b, 3a, 4a, and 5a genotypes.
For orientation: A replicon is a self-replicating genome or part of one, used to study replication in cells.
On to `COC(=O)N[C@H](C(=O)N1CCC[C@H]1c1nc(-c2ccc(-c3ccc(-c4[nH]c([C@@H]5CCCN5C(=O)[C@@H](NC(=O)OC)C(C)C)nc4C)cc3)cc2)c(C)[nH]1)C(C)C` [Example E5l, methyl ((1S)-1-(((2S)-2-(4-(4'-(2-((2S)-1-((2S)-2-((methoxycarbonyl)amino)-3-methylbutanoyl)-2-pyrrolidinyl)-4-methyl-1H-imidazol-5-yl)-4-biphenylyl)-5-methyl-1H-imidazol-2-yl)-1-pyrrolidinyl)carbonyl)-2-methylpropyl)carba mate], for which the 50% effective concentration (EC50) was 0.001 to 0.999 nM.
The figure for `COC(=O)Cc1[nH]c([C@@H]2CCCN2C(=O)[C@@H](NC(=O)OC)C(C)C)nc1-c1ccc(-c2ccc(-c3c[nH]c([C@@H]4CCCN4C(=O)[C@@H](NC(=O)OC)C(C)C)n3)cc2)cc1` [Example J14b.1, methyl (2-((2S)-1-(N-(methoxycarbonyl)-L-valyl)-2-pyrrolidinyl)-4-(4'-(2-((2S)-1-(N-(methoxycarbonyl)-L-valyl)-2-pyrrolidinyl)-1H-imidazol-4-yl)-4-biphenylyl)-1H-imidazol-5-yl)acetate] is 0.001 to 0.999 nM; for `CC(C)[C@H](Nc1ncccn1)C(=O)N1[C@@H]2C[C@@H]2C[C@H]1c1ncc(-c2ccc(-c3ccc(-c4cnc([C@@H]5C[C@H]6C[C@H]6N5C(=O)[C@@H](Nc5ncccn5)C(C)C)[nH]4)cc3)cc2)[nH]1` [Example M144, N,N'-(4,4'-biphenyldiylbis(1H-imidazole-4,2-diyl(1R,3S,5R)-2-azabicyclo[3.1.0]hexane-3,2-diyl((2S)-3-methyl-1-oxo-1, -butanediyl)))di(2-pyrimidinamine)] it is 0.001 to 0.999 nM; for `CCCc1[nH]c([C@@H]2CCCN2C(=O)[C@@H](NC(=O)OC)C(C)C)nc1-c1ccc(-c2ccc(-c3c[nH]c([C@@H]4CCCN4C(=O)[C@@H](NC(=O)OC)C(C)C)n3)cc2)cc1` [Example J14c.2, methyl ((1S)-1-(((2S)-2-(4-(4'-(2-((2S)-1-((2S)-2-((methoxycarbonyl)amino)-3-methylbutanoyl)-2-pyrrolidinyl)-1H-imidazol-4-yl)-4-biphenylyl)-5-propyl-1H-imidazol-2-yl)-1-pyrrolidinyl)carbonyl)-2-methylpropyl)carba mate] it is 0.001 to 0.999 nM.
On to `COC(=O)N[C@H](C(=O)N1CCC[C@H]1c1nc(-c2ccc(-c3ccc(-c4nc([C@@H]5CCCN5C(=O)[C@@H](NC(=O)OC)[C@@H](C)OC)[nH]c4C)cc3)cc2)c(C)[nH]1)[C@@H](C)OC` [Example E5m, methyl ((1S,2R)-2-methoxy-1-(((2S)-2-(4-(4'-(2-((2S)-1-(N-(methoxycarbonyl)-O-methyl-L-threonyl)-2-pyrrolidinyl)-5-methyl-1H-imidazol-4-yl)-4-biphenylyl)-5-methyl-1H-imidazol-2-yl)-1-pyrrolidinyl)carbonyl)propyl)carbamate], for which the concentration giving a half-maximal response (EC50) was 0.001 to 0.999 nM.
The figure for `CC[C@H](NC(=O)OC)C(=O)N1[C@@H](C)CC[C@H]1c1nc(-c2ccc(-c3ccc(-c4c[nH]c([C@@H]5CC[C@H](C)N5C(=O)[C@H](CC)NC(=O)OC)n4)cc3)cc2)c[nH]1` [Example M154, dimethyl (4,4'-biphenyldiylbis(1H-imidazole-4,2-diyl((2S,5S)-5-methyl-2,1-pyrrolidinediyl)((2S)-1-oxo-1,2-butanediyl)))biscarbamate] is 0.001 to 0.999 nM.
Take `CC(C)[C@@H](NC(=O)OC(C)(C)C)C(=O)N1[C@@H]2C[C@@H]2C[C@H]1c1nc(-c2ccc(-c3ccc(-c4c[nH]c([C@@H]5C[C@H]6C[C@H]6N5C(=O)[C@H](NC(=O)OC(C)(C)C)C(C)C)n4)cc3)cc2)c[nH]1` [Example M142, tert-butyl ((1R)-1-(((1R,3S,5R)-3-(4-(4'-(2-((1R,3S,5R)-2-((2R)-2-((tert-butoxycarbonyl)amino)-3-methylbutanoyl)-2-azabicyclo[3.1.0]hex-3-yl)-1H-imidazol-4-yl)-4-biphenylyl)-1H-imidazol-2-yl)-2-azabic yclo[3.1.0]hex-2-yl)carbonyl)-2-methylpropyl)carbamate]: the 50% effective concentration (EC50) was in the range of 1 to 99 nM.

One may read the EC50 as the concentration needed to bring the measured effect to its halfway point.
